Results taken from patent US8436049B2, “Uses of pentamidine and related compounds” (State of Oregon Acting By and Through the State Board of …, priority 2008, dated 2013).
Starred links: 1 amine or outer side, 2 acyl side, 3 side chain; linkers in the order of their positions; H or OH if unused. Positions of bridges follow the written chain, without caps; N, C: chain ends. Non-standard residues stand in square brackets, D forms with d. Residues, ends and D or L forms follow the SMILES beside them. Chains are numbered I, II in the order given. Actinocin(9to1) = Cc1c2oc3c(C)ccc(C(=O)[*:1])c3nc-2c(C(=O)[*:2])c(N)c1=O; NMeV = CN[C@H](C(=O)O)C(C)C; Sar = CNCC(=O)O

Key:
[1] = biological target: T1, MBNL-CUG RNA complex (Homo sapiens, UniProt Q9NR56); test: Gel shift assay, disruption of MBNL binding to short CUG repeat RNA; conditions: for Disruption of the MBNL-CUG interaction: gel shift screen, increasing amounts of small molecule
T1 construct: Both the full length MBNL and MBNL (1-260) constructs were cloned using BamHI and NotI restriction sites; GST (N, cleaved yes); made in house; host or cells: E. coli BL21-Star
T1 sequence (Q9NR56 1-382 isoform Q9NR56-5): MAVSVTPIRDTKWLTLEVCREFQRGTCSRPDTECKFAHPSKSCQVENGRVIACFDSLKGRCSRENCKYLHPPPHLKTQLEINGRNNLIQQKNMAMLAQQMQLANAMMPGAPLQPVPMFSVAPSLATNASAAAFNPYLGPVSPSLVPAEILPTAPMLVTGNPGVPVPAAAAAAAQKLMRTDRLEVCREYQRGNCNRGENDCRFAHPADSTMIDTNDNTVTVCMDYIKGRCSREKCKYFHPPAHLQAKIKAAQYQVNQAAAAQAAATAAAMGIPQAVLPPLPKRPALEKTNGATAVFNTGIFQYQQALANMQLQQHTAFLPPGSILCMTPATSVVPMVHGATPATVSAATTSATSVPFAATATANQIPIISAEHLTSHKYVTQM
Experimental: MBNL1 (MBNL) was PCR amplified and was cloned into GST fusion vector pGEX-6P-1 (GE Healthcare, Piscataway, N.J.), using DNA encoding a MBNL isoform with amino acids 1-382). Both the full length MBNL and MBNL (1-260) constructs were cloned using BamHI and NotI restriction sites. Using BL21-Star expression cells (Invitrogen, Carlsbad, Calif.), protein expression was induced with 0.25 mM IPTG at an OD600 of about 0.5-1, for 3-4 hours at 37° C. Cells were lysed in 30 ml of buffer (500 mM NaCl, 25 mM Tris pH 7.5, 10 mM β-mercaptoethanol (BME) and 5% glycerol) using 1 mg/ml of lysozyme, followed by sonication (3×30 seconds). Cell extract was centrifuged for 15 minutes at 17,000 rpm, and lysate which contained GST-MBNL was collected. GST-MBNL was bound to GST affinity beads for 30 minutes at 4° C. […] The protein was then run over an anion exchange (Q) column. […] MBNL was collected in the column flow through, concentrated and dialyzed into storage buffer (30% glycerol, 300 mM NaCl, 20 mM Tris pH 7.5, 5 mM BME) and stored at −80° C. Aliquots were removed from −80° C. and temporarily placed at −20° C. until used for an experiment.
All RNA substrates that were radiolabeled were ordered from IDT DNA (Coralville, Iowa), and 5′ end-labeled using [γ-^32P]ATP. All radiolabeled RNAs were purified on 8% polyacrylamide denaturing gels.
Solutions for the protein-RNA binding experiments contained 125 mM NaCl, 5 mM MgCl2, 20 mM Tris (pH 7.5), 7.5% glycerol, 2 mg/ml bovine serum albumin, and 0.1 mg/ml heparin. Prior to incubation, RNA substrates were annealed by incubation at 95° C. for 2 minutes and then placed directly on ice for 20 minutes in 66 mM NaCl, 6.7 mM MgCl2, and 27 mM Tris (pH 7.5). Protein was then added to the RNA in the presence or absence of the small molecule. The binding reaction was carried out in a 10 μL volume and was incubated for 10 minutes at room temperature before 2-4 μL were loaded on a pre-chilled 4° C. gel. RNA and RNA-protein complexes were separated on 3% acrylamide (37.5:1), 0.3% agarose (low melting point), 0.5× Tris-Borate (TB) gels, run for approximately 2-3 hours at 4° C. at 25-50 volts. Gels were dried and autoradiographed. For the neomycin B and CUG8 gel shift, an 8% acrylamide (29:1), 0.5×TB gel was used and run for 3 hours at 4° C. at 175 volts. All small molecules were dissolved in either water or ethanol, according to the manufacturer's guidance for solubility.
For binding curves, gels were quantified using ImageQuant® software (Molecular Dynamics, Piscataway, N.J.). The percent RNA bound was determined by taking the ratio of RNA-protein complex to total RNA, per lane. Any counts in the well were discarded as it was unapparent if the RNA was bound by protein, small molecule or was in an aggregate. Binding curves were graphed using KaleidaGraph software (Synergy Software, Reading, Pa.). For the neomycin B and CUG8 gel shift, the apparent Kd was determined using Equation 1, where Y=fraction bound, m0=small molecule concentration, m1=total RNA concentration, and m2=Kd.
For determining the EC50, Equation 3 was used, where m0=small molecule concentration, m1=EC50, m2=Hill coefficient, and m3=fraction MBNL bound without small molecule present. Y=m3/[1+(m0/m1)^m2] Equation 3 Results

[2] = system: cTNT splicing reporter in HeLa cells; test: cTNT splicing reporter (exon 5 inclusion) in HeLa cells with or without CUG960 plasmid; type: cell-based; conditions: presence of the CUG960 construct
Experimental: HeLa cells were grown in monolayers in DMEM with GlutaMAX™ (Gibco, Carlsbad, Calif.) and supplemented with 10% fetal bovine serum. Approximately 2.0 (±0.2)×10^5 cells were plated in 6 well plates and transfected 18-20 hours later at 70-90% confluency. 1 μg of plasmid was transfected into each well of cells, using 5 μL of […] (Invitrogen) according to the manufacturer's protocols. For co-transfection, 1 μg of total plasmid was transfected, at 500 ng of each construct. Test compounds were added 4 hours after transfection, when the media was changed. Cells were harvested 18-22 hours after transfection using TrypLE™ reagent (Gibco).
Immediately following harvesting, RNA was isolated from the cell pellets using an RNeasy® kit (Qiagen, Valencia, Calif.). 500 ng of isolated RNA was DNased with RQI DNase (Promega, Madison, Wis.) according to manufacture's protocol. 100 ng of DNAsed RNA was reverse transcribed with Superscript® II (Invitrogen, Carlsbad, Calif.) and a cTNT-specific reverse primer according to manufacturer's protocols. 30 ng of the reverse transcription reaction was subjected to 22-25 rounds of PCR amplification using cTNT specific primers spiked with a forward primer 5′ end-labeled with [γ-^32P]ATP. Similar methods were used to reverse transcribe and amplify IR and PLEKHH2. […] The resulting PCR products were run on a 6% (19:1) polyacrylamide denaturing gel. The gel was subsequently autoradiographed and quantitation of the radioactive bands was performed using ImageQuant® software.
The following primer pairs were used. For the cTNT minigene, the forward primer was […] (SEQ ID NO: 1), and the reverse primer was […] (SEQ ID NO: 2). For the IR minigene, the forward primer was […] (SEQ ID NO: 3), and the reverse primer was […] (SEQ ID NO: 4). The underlined sections are for cloning purposes. For the PLEKHH2 minigene, the forward primer was […] (SEQ ID NO: 5), and the reverse primer was […] (SEQ ID NO: 6).
The ability of pentamidine to alter the splicing defects observed in a cell-based model for DM was tested. This was accomplished in a system using cells transformed with a plasmid expressing 960 CUG repeats where the expression of these CUG repeats causes splicing defects similar to those observed in DM cells and DM subjects (Savkur et al., Nature Genet. 29:40-47, 2001).

[3] = biological target: T2, MBNL-cTNT interaction (Homo sapiens, UniProt Q9NR56); test: Gel shift assay, disruption of MBNL binding to cTNT pre-mRNA site; conditions: read-out: EC50 for disruption of MBNL binding to cTNT target construct
T2 construct: Both the full length MBNL and MBNL (1-260) constructs were cloned using BamHI and NotI restriction sites; GST (N, cleaved yes); made in house; host or cells: E. coli BL21-Star
T2 sequence (Q9NR56 1-382 isoform Q9NR56-5): T1 sequence (Q9NR56 1-382 isoform Q9NR56-5)
Experimental: Solutions for the protein-RNA binding experiments contained 125 mM NaCl, 5 mM MgCl2, 20 mM Tris (pH 7.5), 7.5% glycerol, 2 mg/ml bovine serum albumin, and 0.1 mg/ml heparin. Prior to incubation, RNA substrates were annealed by incubation at 95° C. for 2 minutes and then placed directly on ice for 20 minutes in 66 mM NaCl, 6.7 mM MgCl2, and 27 mM Tris (pH 7.5). Protein was then added to the RNA in the presence or absence of the small molecule. The binding reaction was carried out in a 10 μL volume and was incubated for 10 minutes at room temperature before 2-4 μL were loaded on a pre-chilled 4° C. gel. […]
For binding curves, gels were quantified using ImageQuant® software (Molecular Dynamics, Piscataway, N.J.). The percent RNA bound was determined by taking the ratio of RNA-protein complex to total RNA, per lane. […] Binding curves were graphed using KaleidaGraph software (Synergy Software, Reading, Pa.). For the neomycin B and CUG8 gel shift, the apparent Kd was determined using Equation 1, where Y=fraction bound, m0=small molecule concentration, m1=total RNA concentration, and m2=Kd. […]
Pentamidine has been shown previously to bind to other RNAs and DNAs (Zhang et al., RNA 6:937-951, 2000); therefore, we determined pentamidine binding to an endogenous target of MBNL. […]

SMILES: Cc1c2oc3c(C)ccc(C(=O)N[C@@H]4C(=O)N[C@H](C(C)C)C(=O)N5CCC[C@H]5C(=O)N(C)CC(=O)N(C)[C@@H](C(C)C)C(=O)O[C@@H]4C)c3nc-2c(C(=O)N[C@@H]2C(=O)N[C@H](C(C)C)C(=O)N3CCC[C@H]3C(=O)N(C)CC(=O)N(C)[C@@H](C(C)C)C(=O)O[C@@H]2C)c(N)c1=O [actinomycin D] (I: T[dV]P[Sar][NMeV] / II: T[dV]P[Sar][NMeV]; ester I:1-I:C, II:1-II:C; linker I:N-II:N via Actinocin(9to1))
- Disruption of the MBNL-CUG interaction [1]: did not disrupt the MBNL-CUG interaction at any concentration

SMILES: N=C(N)c1ccc(OCCCCCCCOc2ccc(C(=N)N)cc2)cc1 [heptamidine]
- Concentration giving complete rescue of cTNT missplicing [2]: 25 µM

SMILES: NC[C@@H]1O[C@H](O[C@H]2[C@@H](O)[C@H](O[C@@H]3[C@@H](O)[C@H](N)C[C@H](N)[C@H]3O[C@H]3O[C@H](CN)[C@@H](O)[C@H](O)[C@H]3N)O[C@@H]2CO)[C@H](N)[C@@H](O)[C@@H]1O [neomycin B]
- Disruption of the MBNL-CUG interaction [1]: disrupt the MBNL-CUG interaction at micromolar concentrations
- EC50 ([1]; gel shift, short CUG repeat RNA (CUG4), read-out: EC50 for disruption of MBNL binding to CUG repeat construct): 110 µM
- EC50 [3]: 50 µM

SMILES: NC[C@@H]1O[C@H](O[C@H]2[C@@H](O)[C@H](O[C@@H]3[C@@H](O)[C@H](N)C[C@H](N)[C@H]3O[C@H]3O[C@H](CO)[C@@H](O)[C@H](O)[C@H]3N)O[C@@H]2CO)[C@H](N)[C@@H](O)[C@@H]1O [paromomycin]
- Disruption of the MBNL-CUG interaction [1]: did not disrupt the MBNL-CUG interaction at any concentration

SMILES: CN1C(=Cc2cc[n+](C)c3ccccc23)Sc2ccccc21 [thiazole orange]
- Disruption of the MBNL-CUG interaction [1]: disrupt the MBNL-CUG interaction at micromolar concentrations
